Paper PMC11303563 (Communications Medicine, 2024)
Several values for one entry are separate records, joined by “and”; a condition that tells them apart may be missing. Identical values can stand only once.

Assays:
[1] = system: THR-regulated genes and lipid metabolism-related genes in the liver
[2] = system: high-fat diet (HFD)-induced obesity model mice; assay: Weight of epididymal adipose tissue (visceral fat) in HFD mice; assay type: in vivo, C57BL/6J mice; details: for Fig. 3b (weight of epididymal adipose tissue), group mean (Mean 2): n=10; for Fig. 3b (weight of epididymal adipose tissue), group mean (Mean 2) / Fig. 3b (weight of epididymal adipose tissue), Mean Diff. ND vs. treatment (Tukey) / Fig. 3b (weight of epididymal adipose tissue), Mean Diff. Vehicle vs. treatment (Tukey) / Epididymal adipose weight, individual mice (Fig. 3b): in mg (unit assumed); for Fig. 3b (weight of epididymal adipose tissue), Mean Diff. ND vs. treatment (Tukey): ND minus treated; for Fig. 3b (weight of epididymal adipose tissue), Mean Diff. Vehicle vs. treatment (Tukey): Vehicle minus treated
Method: (§1) Epididymal adipose tissue was weighed.
(§2) Fig. 3 Effects of intraperitoneal injection of TH analogs on body weight and deposition of visceral fat. […] After three weeks of injection, body weight (a), and weight of the epididymal adipose tissue (b) were measured.

THRα = details: cited from earlier work
[3] = In vitro blood-brain barrier permeability assay (BBB kit RBT-24H); assay type: in vitro ADME, rat
Method: Therefore, we tested BBB transparency in vitro using the BBB kit RBT-24H (PharmaCo-Cell)[35]. […] Blood-brain barrier permeability assay The blood-brain barrier (BBB) transparency of TH analogs was assessed in vitro using RBT-24H (PharmaCo-Cell)[5] according to the manufacturer 's protocol. […] After 30 min, the assay buffer in the wells mimicking the abluminal side was collected, and the concentration of the compounds was measured using liquid chromatography-mass spectrometry (LC-MS). […] These tips were preconditioned with 20 μL of acetonitrile and 20 μL of 0.1% TFA in purified water. 100 μL of the samples were loaded onto the preconditioned tips, washed with 200 μL of DW, and then eluted with 10 μL of acetonitrile. Triazine (1% vol/vol) was added to the eluent as an internal standard. […] 3 μm; Imtakt, Kyoto, Japan). All the experiments were performed using an Ultimate 3000 UHPLC system coupled with a Q Exactive Plus Orbitrap mass spectrometer (Thermo Fisher Scientific). […] Data were shown as mean ± standard deviation (n=3).

[4] = system: high-fat diet (HFD)-induced obesity model mice; assay: Body weight of high-fat diet-induced obesity model mice; assay type: in vivo, C57BL/6J mice; design: Body weight, Mean Diff. ND vs. treated: unit not given here; details: for Body weight, 95.00% CI of diff. ND vs. treated / Body weight, Mean Diff. ND vs. treated: ND group as comparator; for Body weight, 95.00% CI of diff. ND vs. treated / Body weight, Mean Diff. ND vs. treated / Body weight, 95.00% CI of diff. Vehicle vs. treated / Body weight, Mean Diff. Vehicle vs. treated: Tukey's multiple comparisons test; for Body weight, Mean Diff. Vehicle vs. treated / Body weight, group mean (Fig. 3a) / Body weight, individual mice (Fig. 3a): in g (unit assumed); for Body weight, group mean (Fig. 3a) / Body weight, individual mice (Fig. 3a) / decrease of body weight compared to vehicle: HFD mice; for Body weight, group mean (Fig. 3a): n 10; for decrease of body weight compared to vehicle: 3 weeks
Method: The injection was given 6 h after light on. Food consumption and body weights were measured weekly. Food and water were provided to the animals ad libitum. The animals were treated according to the guidelines of Nagoya University, and all experimental procedures were approved by the Animal Experiment Committee of Nagoya University (A210715-003).
as §1, §2

[5] = system: high-fat diet (HFD)-induced obesity model mice; assay: Serum lipid analysis (total cholesterol, triglycerides) in HFD mice; assay type: in vivo, C57BL/6J mice; design: Serum TC (Fig. 4a), individual mouse values / Serum TG (Fig. 4b), individual mouse values / Serum TC (Fig. 4a), Mean Diff. ND vs. treatment (Tukey) / Serum TC (Fig. 4a), Mean Diff. Vehicle vs. treatment (Tukey) / Serum TC (Fig. 4a), group mean (Mean 2) / Mean Diff., ND vs. treated (Fig. 4b) / Mean Diff., Vehicle vs. treated (Fig. 4b) / Mean (Fig. 4b): unit not given here; details: for Serum TC (Fig. 4a), group mean (Mean 2) / Mean (Fig. 4b): n=10; for Serum TC (Fig. 4a), Mean Diff. ND vs. treatment (Tukey): ND minus treated; for Serum TC (Fig. 4a), Mean Diff. Vehicle vs. treatment (Tukey): Vehicle minus treated; for Mean Diff., ND vs. treated (Fig. 4b) / Mean Diff., Vehicle vs. treated (Fig. 4b): Tukey's multiple comparisons test; for Mean (Fig. 4b): group mean
Method: Fig. 4 Effects of TH analogs on the accumulation of lipids in mice. […] After 3 weeks of injection, serum and liver tissues were collected, and the amount of serum cholesterol (a), serum triglycerides (b), liver cholesterol (c), liver triglycerides (d), and liver total lipids (e) were measured.

full-length human THRα = biological target: T1, full-length human THRα (Homo sapiens, UniProt P10827); assay: [125I]-T3-displacement assay, THRα; details: from IC50 values THRα vs THRβ
T1 sequence (P10827 1-410 isoform P10827-2): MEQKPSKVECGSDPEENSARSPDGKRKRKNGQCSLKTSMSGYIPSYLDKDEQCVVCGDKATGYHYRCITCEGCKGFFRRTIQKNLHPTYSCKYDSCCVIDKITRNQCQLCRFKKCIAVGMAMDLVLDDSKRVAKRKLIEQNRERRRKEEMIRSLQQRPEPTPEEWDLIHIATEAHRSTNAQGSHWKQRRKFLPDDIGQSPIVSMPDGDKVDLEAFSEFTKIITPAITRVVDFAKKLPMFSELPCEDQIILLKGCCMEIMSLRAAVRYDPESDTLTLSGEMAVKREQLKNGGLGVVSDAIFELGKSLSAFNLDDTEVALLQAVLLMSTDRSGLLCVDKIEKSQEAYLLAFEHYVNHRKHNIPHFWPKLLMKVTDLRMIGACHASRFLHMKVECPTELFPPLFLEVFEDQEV
Method: The coding sequences of full-length human THRα and THRβ were amplified by PCR.
The PCR products of THRα and β were cloned into EcoRI–KpnI and EcoRI–XbaI sites of pTNT (Promega), respectively. The resultant expression vectors, pTNT-THRα and pTNT-THRβ, were used for the synthesis of THRs by in vitro translation.
THRα and THRβ were synthesized by in vitro translation using TNT T7 Quick Coupled Transcription and Translation kit (Promega) according to the manufacturer’s protocol. After incubation at 30 °C for 90 min, the reaction mixtures were stored at −80 °C until use.
The reaction mixture was incubated overnight at 4 °C. A nitrocellulose membrane (Optitran, 0.45 μm in pore size, Whatman) pre-blocked by E-400 buffer was placed on a dot-blot apparatus (Minifold I, GE Healthcare), and the reaction mixtures were filtered through the membrane followed by three washes with 200 μL E-400 buffer. […] Radioactive signals were scanned using Typhoon FLA9000 (GE Healthcare) and quantified by Image Quant TL software (GE Healthcare). The IC50 values for each competitor were calculated by fitting the dose–response data to the log (inhibitor) vs. response (three parameters) model using GraphPad Prism (version 8.0; GraphPad Software).
Data are shown as mean ± SD (n = 3). Data were fitted to the log (inhibitor) vs. response (three parameters) model using GraphPad Prism (version 8.0; GraphPad Software).

[6] = HFD mice, 1 μmol/kg day, RT-qPCR, reference gene Rps18
[7] = liver gene expression, 1µmol dose group vs. Vehicle

Cc1cc(OCC(=O)O)cc(C)c1Cc1ccc(O)c(C(C)C)c1 [GC-1]
Dio1 expression in the liver, individual animal values ([1]; 1µmol, one value per animal): 3.829 and 3.919 and 5.168 and 4.354 and 3.692 and 2.159 and 3.566 and 3.314 and 5.1441 and 5.131
Ldlr expression in the liver, individual animal values ([1]; 1µmol, one value per animal): 1.223 and 2.2 and 0.6334 and 0.7002 and 0.6702 and 3.257 and 0.3372 and 1.534 and 1.675
Me1 expression in the liver, individual animal values ([1]; 1µmol, one value per animal): 1.623 and 3.346 and 4.729 and 3.444 and 1.386 and 2.548 and 5.3983 and 2.089 and 4.684 and 5.253
Pnpla2 expression in the liver, individual animal values ([1]; 1µmol, one value per animal): 2.545 and 1.795 and 3.166 and 2.343 and 2.009 and 2.4714 and 3.073 and 2.97 and 1.253 and 2.348
Srebp1c expression in the liver, individual animal values ([1]; 1µmol, one value per animal): 0.08164 and 0.06602 and 0.1318 and 0.09978 and 0.1458 and 0.0919 and 0.4057 and 0.2719 and 0.0552 and 0.07309
Thrsp expression in the liver, individual animal values ([1]; 1µmol, one value per animal): 1.4847 and 1.604 and 3.066 and 1.407 and 2.579 and 0.6637 and 2.019 and 1.066 and 1.315 and 1.484
liver expression of Dio1 vs vehicle [1, 6]: significantly upregulated
liver expression of Ldlr vs vehicle [1, 6]: not significantly different
liver expression of Me1 vs vehicle [1, 6]: significantly upregulated
liver expression of Pnpla2 vs vehicle [1, 6]: significantly higher
liver expression of Srebp1c vs vehicle [1, 6]: significantly lower
liver expression of Thrsp vs vehicle [1, 6]: increased
Pnpla2, Dunn's multiple comparisons test, Mean rank diff. (Vehicle vs. compound) [1, 7]: -16.8
Srebp1c, Dunn's multiple comparisons test, Mean rank diff. (Vehicle vs. compound) [1, 7]: 22.27
Pnpla2, Mean rank of treatment group (Mean rank 2) ([1]; liver gene expression, 1µmol dose group, Vehicle mean rank 8): 24.8
Srebp1c, Mean rank of treatment group (Mean rank 2) ([1]; liver gene expression, 1µmol dose group, Vehicle mean rank […]): 11.4
Fig. 3b (weight of epididymal adipose tissue), group mean (Mean 2) ([2]; 0.1 µmol, HFD mice): 1486
Fig. 3b (weight of epididymal adipose tissue), Mean Diff. ND vs. treatment (Tukey) ([2]; 0.1 µmol): -802.3
Fig. 3b (weight of epididymal adipose tissue), Mean Diff. Vehicle vs. treatment (Tukey) ([2]; 0.1 µmol): 1372
Fig. 3b (weight of epididymal adipose tissue), group mean (Mean 2) ([2]; 1 µmol, HFD mice): 1093
Fig. 3b (weight of epididymal adipose tissue), Mean Diff. ND vs. treatment (Tukey) ([2]; 1 µmol): -410.1
Fig. 3b (weight of epididymal adipose tissue), Mean Diff. Vehicle vs. treatment (Tukey) ([2]; 1 µmol): 1765
Epididymal adipose weight, individual mice (Fig. 3b) ([2]; HFD mice, 0.1 µmol dose group): 1120.1 and 1287.3 and 1051.5 and 1562.9 and 1102.8 and 1733.2 and 1866.1 and 1900.9 and 1746.2 and 1485.7
Epididymal adipose weight, individual mice (Fig. 3b) ([2]; HFD mice, 1 µmol dose group): 1157.5 and 882.3 and 1400.3 and 1216.9 and 1046.3 and 975.7 and 1192.5 and 1112.9 and 1063.5 and 886.8
weight of the epididymal adipose tissue vs vehicle ([2]; HFD mice, i.p., dose not given (0.1 or 1 µmol/kg day), 3 weeks): decreased significantly
lower affinity for THRα than T3 (THRα): 10 fold
Abluminal concentration ([3]; 10 µM on luminal side, 30 min, mean ± standard deviation (n=3)): 0.0966 ± 0.0234 µM
Papp at 30 min, 10 µM ([3]; rat, 10 μM on luminal side, read-out: apparent permeability (Papp)): 14.6 ± 3.54 ×10⁻⁶ cm/s
Body weight, 95.00% CI of diff. ND vs. treated ([4]; 0.1 µmol dose group): -9.046 to -0.3347
Body weight, Mean Diff. ND vs. treated ([4]; 0.1 µmol dose group): -4.69
Body weight, 95.00% CI of diff. Vehicle vs. treated ([4]; 0.1 µmol dose group): 5.485 to 13.92
Body weight, Mean Diff. Vehicle vs. treated ([4]; 0.1 µmol dose group): 9.704
Body weight, 95.00% CI of diff. ND vs. treated ([4]; 1 µmol dose group): -9.111 to -0.3997
Body weight, Mean Diff. ND vs. treated ([4]; 1 µmol dose group): -4.755
Body weight, 95.00% CI of diff. Vehicle vs. treated ([4]; 1 µmol dose group): 5.420 to 13.86
Body weight, Mean Diff. Vehicle vs. treated ([4]; 1 µmol dose group): 9.639
Body weight, group mean (Fig. 3a) ([4]; 0.1 µmol dose group): 33.21
Body weight, individual mice (Fig. 3a) ([4]; 0.1 µmol dose group): 29.83 and 31.33 and 29.67 and 36.57 and 36.31 and 35.71 and 35.26 and 34.18 and 33.67 and 29.56
Body weight, group mean (Fig. 3a) ([4]; 1 µmol dose group): 33.27
Body weight, individual mice (Fig. 3a) ([4]; 1 µmol dose group): 32.13 and 30.51 and 31.76 and 34.15 and 34.95 and 32.95 and 36.28 and 31.91 and 35.57 and 32.53
decrease of body weight compared to vehicle ([4]; i.p. 0.1 µmol/kg day): ~ 20%
decrease of body weight compared to vehicle ([4]; i.p. 1 µmol/kg day): ~ 20%
Serum TC (Fig. 4a), individual mouse values ([5]; 0.1 µmol, HFD mice): 76.25 and 108.417 and 114.042 and 114.792 and 113.958 and 112.208 and 91.25 and 101.875 and 101.042 and 98.458
Serum TG (Fig. 4b), individual mouse values ([5]; 0.1 µmol, HFD mice): 47.583 and 67.583 and 60.917 and 64.75 and 51.417 and 64.25 and 45.083 and 40.917 and 120.083
Serum TC (Fig. 4a), group mean (Mean 2) ([5]; 0.1 µmol, HFD mice): 103.2
Serum TC (Fig. 4a), Mean Diff. ND vs. treatment (Tukey) ([5]; 0.1 µmol): 76.19
Serum TC (Fig. 4a), Mean Diff. Vehicle vs. treatment (Tukey) ([5]; 0.1 µmol): 146.8
Serum TC (Fig. 4a), individual mouse values ([5]; 1 µmol, HFD mice): 114.667 and 103 and 123.208 and 101.042 and 100.208 and 100.542 and 101.667 and 117.708 and 116.875 and 87.208
Serum TG (Fig. 4b), individual mouse values ([5]; 1 µmol, HFD mice): 89.25 and 100.917 and 117.583 and 93.417 and 90.917 and 81.75 and 125.917 and 105.083 and 72.583 and 61.75
Serum TC (Fig. 4a), group mean (Mean 2) ([5]; 1 µmol, HFD mice): 106.6
Serum TC (Fig. 4a), Mean Diff. ND vs. treatment (Tukey) ([5]; 1 µmol): 72.81
Serum TC (Fig. 4a), Mean Diff. Vehicle vs. treatment (Tukey) ([5]; 1 µmol): 143.5
Mean Diff., ND vs. treated (Fig. 4b) ([5]; ND minus 0.1 µmol group): 84.09
Mean Diff., ND vs. treated (Fig. 4b) ([5]; ND minus 1 µmol group): 52.85
Mean Diff., Vehicle vs. treated (Fig. 4b) ([5]; Vehicle minus 0.1 µmol group): 53.09
Mean Diff., Vehicle vs. treated (Fig. 4b) ([5]; Vehicle minus 1 µmol group): 21.86
Mean (Fig. 4b) ([5]; 0.1 µmol, HFD mice): 62.68
Mean (Fig. 4b) ([5]; 1 µmol, HFD mice): 93.92
serum triglyceride level vs vehicle ([5]; HFD mice, i.p. 0.1 µmol/kg day, 3 weeks): decreased
affinity to THRα lower than that to THRβ (full-length human THRα): approximately 20 fold
